Data on five compounds can be found in patent US20260241013A1, “TARGETED PROTEIN DEGRADATION USING PRODRUGS OF BIFUNCTIONAL COMPOUNDS THAT BIND UBIQUITIN LIGASE AND A TARGET MCL-1 PROTEIN” (Captor Therapeutics S.A., priority 2022, published 2026).

Like-named read-outs stand apart in the source and are kept apart here.

Holding throughout (assay type): cell-based
The nature of data set [1]: Cell viability assay (CellTiter-Glo, CTG protocol), ARH-77. The settings on record: human, ARH-77 cells (lymphoblast-like), ARH-77 (MCL-1 independent line), 24 hours incubation, 1% FBS, read-out: Average pCC50 by molecule ARH-77 (converted). From the text:
(§1) The effect of various compounds of the invention on the viability of MV4-11 and ARH-77 cell lines was investigated, using the CTG protocol described below.
(§2) MV4-11 cell lines are derived from acute myeloid leukaemia and it is described in the literature as a MCL-1 dependent cell line, as opposed to lymphoblast-like ARH-77 cell line, which is described as independent of MCL-1 (Tron A E et al. Nat Commun. 2018; 9: 5341; Caenepeel S et al. Cancer Discov. 2018 December; 8(12): 1582-1597).
(§3) Cells (MV4-11 or ARH-77) were seeded on […] in a growth medium with 1% FBS. Next, compound stocks were pre-diluted in DMSO and added directly to the cell culture media (final DMSO concentration: 0.5%). Compound concentrations used in this assay: 1/3 dilutions starting at 30 μM (9 to 12 points). After 24 hours of incubation, cell viability was evaluated using CellTiter-Gob® Luminescent Cell Viability Assay (Promega, cat #G7572). The luminescence signal was measured using a CLARIOstar Plus Multi-Mode Microplate Reader (574-590 nm).
(§4) Results were normalized to DMSO control. Collected data were analyzed using GraphPad Prism to calculate pCC50 values (i.e. the negative log of the CC50 value). CC50 (50% cytotoxic concentration) is the effective concentration of a cytotoxic compound, which produces 50% of the maximum possible cell death (i.e. the concentration of the compound which is required in order to reduce cell viability by 50%). CC50 is often used rather than IC50 in cell toxicity assays.
(In ATP-based viability assays light output follows the ATP content of the culture.)

Another data set deals with T1, MCL-1 protein (Homo sapiens, UniProt Q07820).
T1 construct: endogenous in cells; host or cells: MV4-11
T1 sequence (Q07820 whole entry): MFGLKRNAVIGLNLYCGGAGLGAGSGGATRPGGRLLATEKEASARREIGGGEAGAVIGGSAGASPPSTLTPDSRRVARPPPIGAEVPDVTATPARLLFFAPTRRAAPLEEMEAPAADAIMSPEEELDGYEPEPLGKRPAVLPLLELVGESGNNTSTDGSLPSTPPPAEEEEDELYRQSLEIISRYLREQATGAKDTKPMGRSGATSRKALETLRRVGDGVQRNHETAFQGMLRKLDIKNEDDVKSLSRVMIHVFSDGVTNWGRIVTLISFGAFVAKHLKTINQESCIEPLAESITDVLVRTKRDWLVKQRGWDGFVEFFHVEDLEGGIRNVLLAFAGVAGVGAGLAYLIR
The data set can be described thus: MCL-1 protein degradation in MV4-11 cells, Western blot. As to conditions: 6 hours; for MCL-1 protein abundance: MV4-11, % of DMSO control; for MCL-1 protein degradation (Western blot, in words): MV4-11 cells. The method, then:
MV4-11 cells were maintained in IMDM medium, supplemented with penicillin/streptomycin and 10% Fetal Bovine Serum (FBS). MV4-11 cells were collected, centrifuged (250 rcf, 5 min), resuspended in a growth medium containing 10% FBS and counted. The cell suspension was then adjusted to 1×10^6 cells/ml using a growth medium containing 10% FBS. Afterwards, 0.5×10^6 cells were seeded on 24-well plates in 0.5 mL of medium per well. Immediately after seeding, cells were pre-treated for 30 minutes with DMSO or pan-caspase inhibitor—Q-VD-Oph. Next, compounds from stocks pre-diluted in DMSO were added directly to the cell culture medium in appropriate concentrations (the final DMSO concentration was 0.5%). Following the 6 hours treatment with the compounds, cells were collected from the plates and suspended in a lysis buffer (2% SDS, 50 mM Tris, pH 8.0, 100 U/ml Pierce Universal Nuclease for Cell Lysis, complete EDTA-free Protease Inhibitor Cocktail) and incubated on ice for 45 min. The amount of protein was determined via BCA assay, and an equal quantity of each sample was loaded on the precast gel for protein separation. After the antibody staining for MCL-1, α-tubulin, and cleaved forms of PARP and caspase 3, the membranes were washed and signals developed.
Densitometric values for MCL-1 were normalized to total protein level (stain-free membrane). [%] of protein reduction is calculated in comparison to the cells treated with DMSO, which stand for 0%.

In the next data set the test system is MV4-11 cells. The data set can be described thus: Cell viability assay (CellTiter-Glo, CTG protocol), MV4-11. As to conditions: Homo sapiens, MV4-11 (MCL-1 dependent AML line), 24 hours incubation, 1% FBS, read-out: Average pCC50 by molecule MV4-11 (converted).
Excerpt: as §1, §2, §3, §4

In a further data set the target is T2, CRBN (Homo sapiens, UniProt Q96SW2).
T2 construct: host or cells: HEK293 (NanoLuc CRBN HEK293 cells)
T2 sequence (Q96SW2 whole entry): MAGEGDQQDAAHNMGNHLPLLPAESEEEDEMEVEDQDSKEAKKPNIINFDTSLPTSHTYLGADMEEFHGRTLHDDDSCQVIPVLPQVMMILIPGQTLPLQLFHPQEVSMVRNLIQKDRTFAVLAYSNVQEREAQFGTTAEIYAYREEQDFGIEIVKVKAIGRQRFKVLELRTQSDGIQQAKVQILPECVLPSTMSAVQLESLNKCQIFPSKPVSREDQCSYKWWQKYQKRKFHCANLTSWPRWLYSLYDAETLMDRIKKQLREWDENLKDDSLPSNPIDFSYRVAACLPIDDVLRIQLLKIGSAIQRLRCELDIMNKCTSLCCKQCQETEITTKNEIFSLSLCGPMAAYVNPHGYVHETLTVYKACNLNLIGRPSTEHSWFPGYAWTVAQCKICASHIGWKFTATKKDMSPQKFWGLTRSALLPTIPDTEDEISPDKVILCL
The data set can be described thus: NanoBRET In-cell CRBN Target Engagement Assay (live and lytic mode), NanoLuc CRBN HEK293 cells. The method, then:
Commercially available, NanoBRET In-cell CRBN Target Engagement Assay (NanoBRET CRBN TE Assay), which uses NanoLuc CRBN HEK293 cells and NanoBRET In-cell CRBN Tracer was used (N2910, N2912, PROMEGA) to determine the cell membrane permeability of prodrugs of MCL-1 degraders.
The assay was run in 96-well plate format (cat. 3600, Corning). NanoLuc CRBN HEK293 cells were treated with CRBN Tracer and compounds. Briefly, prepared was cell suspension (0.17×10^6cells/ml) in Opti-MEM without phenol red (Life Technologies). The cells were treated with CRBN Tracer (20× concentrated, 5 μl/well. For the live mode: 0.8 μM and for the lytic: 0.17 μM final concentration) or DMSO vehicle control (20× concentrated, 5 μl/well). Such prepared cells were seeded into the wells of 96-well plate on top of compounds (100× concentrated, 1 μl/well; 11-point 2-fold dilution) pre-plated on them with the help of Echo 555 acoustic dispenser (Labcyte). For the lytic mode assay, Digitonin (0.05 mg/ml, 10× concentrated, 10 μl/well) was added additionally. In the live mode assay, the plate was incubated at 37° C., 5% CO2 for 2 hours, and then at room temperature for 15 minutes to cool down. In the lytic mode assay, there was no incubation. The 3×Complete NanoBRET reagent (50 μl/well) was prepared according to the manufacturer's recommendations, appropriately for live and lytic mode. The plate was incubated for 2 minutes at room temperature and the luminescence and fluorescence readings followed using CLARIOstar Multimode Plate Reader (donor emission RLU—450 nm; acceptor emission RFU—610 nm). RBA value is an indicator of cell membrane permeability (the lower, the better) is calculated from absolute pIC50 (the negative log of the absolute IC50 value when converted to molar) of the live mode assay (pIC50 Live) and the lytic mode assay (pIC50 Lytic).

The mark [2] stands for this setting: 1 nM, + Q-VD-Oph (pan-caspase inhibitor).
Setting [3] is: 10 nM, + Q-VD-Oph (pan-caspase inhibitor).
Setting [4] is: 100 nM, + Q-VD-Oph (pan-caspase inhibitor).
Where [5] appears, read: live mode, intact cells, 2 hours at 37° C., read-out: pIC50 (live) (converted).
Setting [6] is: lytic mode, digitonin-lysed cells, no incubation, read-out: pIC50 (lytic) (converted).

As to `CC(=O)OCOC(=O)c1c(CCCOc2cccc3cc(F)ccc23)c2ccc(Cl)c(-c3c(C)nn(C)c3C)c2n1CCN1CCN(C(=O)COc2cccc3c2CN(C2CCC(=O)NC2=O)C3=O)CC1` (stereo not shown) [Compound 41, Acetoxymethyl 6-chloro-1-(2-(4-(2-((2-(2,6-dioxopiperidin-3-yl)-1-oxoisoindolin-4-yl)oxy)acetyl)piperazin-1-yl)ethyl)-3-(3-((6-fluoronaphthalen-1-yl)oxy)propyl)-7-(1,3,5-trimethyl-1H-pyrazol-4-yl)-1H-indole-2-carboxylate], the CC50 at 24 h in data set [1] is more than 10000 nM. Moreover, the MCL-1 protein abundance entry at MCL-1 protein (setting [2]) is “B (Amount of MCL-1 protein >25% and ≤50% calculated as % of DMSO control)”; at MCL-1 protein (setting [3]), “A (Amount of MCL-1 protein ≤25% calculated as % of DMSO control)”; at MCL-1 protein (setting [4]), “A (Amount of MCL-1 protein ≤25% calculated as % of DMSO control)”. The “MCL-1 protein degradation (Western blot, in words)” value on MCL-1 protein (in the presence of apoptosis inhibitor) is “MCL-1 protein degradation”. For the same compound, in the data set with MV4-11 cells, the CC50 is less than 1 nM. Further, the IC50 on CRBN (setting [5]) was 7.94 nM; on CRBN (setting [6]), 501 nM.

On to `Cc1nn(C)c(C)c1-c1c(Cl)ccc2c(CCCOc3cccc4cc(F)ccc34)c(C(=O)OCOC(=O)C(C)(C)C)n(CCN3CCN(C(=O)COc4cccc5c4CN(C4CCC(=O)NC4=O)C5=O)CC3)c12` (stereo not shown) [Compound 69, (6-Chloro-1-{2-[4-(2-{[2-(2,6-dioxopiperidin-3-yl)-1-oxo-2,3-dihydro-1H-isoindol-4-yl]oxy}acetyl)piperazin-1-yl]ethyl}-3-{3-[(6-fluoronaphthalen-1-yl)oxy]propyl}-7-(1,3,5-trimethyl-1H-pyrazol-4-yl)-1H-indole-2-carbonyloxy)methyl 2,2-dimethylpropanoate], for which the CC50 at 24 h in data set [1] is more than 31600 nM. In addition, the MCL-1 protein abundance entry at MCL-1 protein (setting [2]) was “C (Amount of MCL-1 protein >50% and <75% calculated as % of DMSO control)”; at MCL-1 protein (1 nM, without Q-VD-Oph), “C (Amount of MCL-1 protein >50% and <75% calculated as % of DMSO control)”; on MCL-1 protein (setting [3]) it was “B (Amount of MCL-1 protein >25% and ≤50% calculated as % of DMSO control)”; on MCL-1 protein (10 nM, without Q-VD-Oph), “B (Amount of MCL-1 protein >25% and ≤50% calculated as % of DMSO control)”; on MCL-1 protein (setting [4]) it was “B (Amount of MCL-1 protein >25% and ≤50% calculated as % of DMSO control)”; at MCL-1 protein (100 nM, without Q-VD-Oph), “A (Amount of MCL-1 protein ≤25% calculated as % of DMSO control)”. Besides, the “MCL-1 protein degradation (Western blot, in words)” value at MCL-1 protein (apoptosis not blocked) is on record as “MCL-1 protein degradation”. Moreover, the CC50 with MV4-11 cells was less than 10 nM. For the same compound, the figures for the IC50 on CRBN (setting [5]) and on CRBN (setting [6]) were 39.8 nM and 6310 nM, respectively.

In the case of `Cc1nn(C)c(C)c1-c1c(Cl)ccc2c(CCCOc3cccc4cc(F)ccc34)c(C(=O)OCOC(=O)C(C)(C)C)n(CCN3CCN(C(=O)COc4cccc5c4n(C)c(=O)n5C4CCC(=O)NC4=O)CC3)c12` (stereo not shown) [Compound 73, (Pivaloyloxy)methyl 6-chloro-1-(2-(4-(2-((1-(2,6-dioxopiperidin-3-yl)-3-methyl-2-oxo-2,3-dihydro-1H-benzo[d]imidazol-4-yl)oxy)acetyl)piperazin-1-yl)ethyl)-3-(3-((6-fluoronaphthalen-1-yl)oxy)propyl)-7-(1,3,5-trimethyl-1H-pyrazol-4-yl)-1H-indole-2-carboxylate], the CC50 at 24 h in data set [1] was more than 1000 nM. Besides, in the data set on MV4-11 cells, the CC50 is less than 3.16 nM. The IC50 at CRBN (setting [5]) was 6.31 nM; at CRBN (setting [6]) it was 398 nM.

Turning to `Cc1nn(C)c(C)c1-c1c(Cl)ccc2c(CCCOc3cccc4cc(F)ccc34)c(C(=O)OCOC(=O)C(C)(C)C)n(CCN3CCN(C(=O)COc4ccc5c(c4)n(C)c(=O)n5C4CCC(=O)NC4=O)CC3)c12` (stereo not shown) [Compound 74, (Pivaloyloxy)methyl 6-chloro-1-(2-(4-(2-((1-(2,6-dioxopiperidin-3-yl)-3-methyl-2-oxo-2,3-dihydro-1H-benzo[d]imidazol-5-yl)oxy)acetyl)piperazin-1-yl)ethyl)-3-(3-((6-fluoronaphthalen-1-yl)oxy)propyl)-7-(1,3,5-trimethyl-1H-pyrazol-4-yl)-1H-indole-2-carboxylate], in data set [1], the CC50 at 24 h was more than 1000 nM. In the data set on MV4-11 cells, the CC50 is less than 3.16 nM. Moreover, the IC50 at CRBN (setting [5]) was 12.6 nM; on CRBN (setting [6]) it was 316 nM.

Take `CCOCCOCCOC(=O)OC(C)OC(=O)c1c(CCCOc2cccc3cc(F)ccc23)c2ccc(Cl)c(-c3c(C)nn(C)c3C)c2n1CCN1CCN(C(=O)COc2cccc3c2CN(C2CCC(=O)NC2=O)C3=O)CC1` (stereo not shown) [Compound 101, 4-Oxo-3,5,8,11-tetraoxatridecan-2-yl 6-chloro-1-(2-(4-(2-((2-(2,6-dioxopiperidin-3-yl)-1-oxoisoindolin-4-yl)oxy)acetyl)piperazin-1-yl)ethyl)-3-(3-((6-fluoronaphthalen-1-yl)oxy)propyl)-7-(1,3,5-trimethyl-1H-pyrazol-4-yl)-1H-indole-2-carboxylate]: the CC50 at 24 h in data set [1] is more than 31600 nM. The CC50 in the data set with MV4-11 cells is less than 31.6 nM. The IC50 at CRBN (setting [5]) was 63.1 nM; at CRBN (setting [6]), 794 nM.
